Laboratory results taken from ChEMBL document CHEMBL3763135, “Synthesis and evaluation of thiophene-based guanylhydrazones (iminoguanidines) efficient against panel of voriconazole-resistant fungal isolates” (Bioorg Med Chem, 2016).
Activity calls are given as the source filed them. No cut-off for these calls is given here.

What was measured:
[1] = system: Candida albicans; experiment: Antifungal activity against Candida albicans CA5 by broth dilution method; format: functional
[2] = system: Aspergillus fumigatus; experiment: Antifungal activity against Aspergillus fumigatus ATCC 13073 by broth dilution method; format: functional
[3] = system: Microsporum canis; experiment: Antifungal activity against Microsporum canis DMT2 by broth dilution method; format: functional
[4] = system: MRC5; experiment: Cytotoxicity against human MRC5 cells after 48 hrs by MTT assay; format: cell-based; details: MRC5, 48 h
[5] = system: Candida albicans; experiment: Antifungal activity against Candida albicans CA5 assessed as fungal growth at sub-MIC measured after 24 hrs by time-kill dependence-based spectrophotometric analysis relative to DMSO control; format: functional, organism-based
[6] = Induction of membrane damage in PC/PS/E liposome assessed as calcein release at MIC after 30 mins by fluorescence-based liposome leakage assay; format: functional
[7] = system: Candida albicans; experiment: Antibiofilm activity against Candida albicans assessed as inhibition of Spider medium-induced hyphae formation at sub-MIC after 24 hrs by propidium iodide and FITC-conjugated concanavaline A staining based fluorescence microscopy; format: functional, organism-based
[8] = system: Candida albicans; experiment: Antibiofilm activity against Candida albicans ATCC 10231 assessed as disruption of preformed biofilm after 24 hrs by concanavalin A-FITC-staining based fluorescence microscopic analysis; format: functional
[9] = system: Candida parapsilosis; experiment: Antibiofilm activity against Candida parapsilosis C27 assessed as disruption of preformed biofilm after 24 hrs by concanavalin A-FITC-staining based fluorescence microscopic analysis; format: functional
[10] = Toxicity against zebrafish embryo assessed as dead embryos at 50 ug/ml measured at 96 hrs post fertilization by inverted microscopic analysis; format: organism-based, Danio rerio; details: read-out: Activity
[11] = Toxicity against zebrafish embryo assessed as dead embryos at 25 ug/ml measured at 96 hrs post fertilization by inverted microscopic analysis; format: organism-based, Danio rerio; details: read-out: Activity
[12] = Toxicity against zebrafish embryo assessed as dead embryos at 5 ug/ml measured at 96 hrs post fertilization by inverted microscopic analysis; format: organism-based, Danio rerio; details: read-out: Activity
[13] = Toxicity against zebrafish embryo assessed as dead embryos at 2.5 ug/ml measured at 96 hrs post fertilization by inverted microscopic analysis; format: organism-based, Danio rerio; details: read-out: Activity
[14] = species: Danio rerio; experiment: Toxicity against zebrafish embryo assessed as teratogenic embryos at 50 ug/ml measured at 96 hrs post fertilization by inverted microscopic analysis; format: organism-based; details: in vivo
[15] = species: Danio rerio; experiment: Toxicity against zebrafish embryo assessed as teratogenic embryos at 25 ug/ml measured at 96 hrs post fertilization by inverted microscopic analysis; format: organism-based; details: in vivo
[16] = species: Danio rerio; experiment: Toxicity against zebrafish embryo assessed as teratogenic embryos at 5 ug/ml measured at 96 hrs post fertilization by inverted microscopic analysis; format: organism-based; details: in vivo
[17] = species: Danio rerio; experiment: Toxicity against zebrafish embryo assessed as teratogenic embryos at 2.5 ug/ml measured at 96 hrs post fertilization by inverted microscopic analysis; format: organism-based; details: in vivo
[18] = species: Danio rerio; experiment: Toxicity against zebrafish embryo assessed as effect on tail tip at 10 ug/ml measured at 96 hrs post fertilization by inverted microscopic analysis; format: organism-based; details: in vivo
[19] = species: Danio rerio; experiment: Toxicity against zebrafish embryo assessed as effect on tail tip at 2.5 ug/ml measured at 96 hrs post fertilization by inverted microscopic analysis; format: organism-based; details: in vivo
[20] = species: Danio rerio; experiment: Toxicity against zebrafish embryo assessed as growth retardation at 5 ug/ml measured at 96 hrs post fertilization by inverted microscopic analysis; format: organism-based; details: in vivo
[21] = Toxicity against zebrafish embryo measured at 96 hrs post fertilization by inverted microscopic analysis; format: organism-based, Danio rerio; details: zebrafish embryos
[22] = species: Danio rerio; experiment: Toxicity against zebrafish embryo assessed as normal embryos at 50 ug/ml measured at 96 hrs post fertilization by inverted microscopic analysis; format: organism-based; details: in vivo
[23] = species: Danio rerio; experiment: Toxicity against zebrafish embryo assessed as normal embryos at 25 ug/ml measured at 96 hrs post fertilization by inverted microscopic analysis; format: organism-based; details: in vivo
[24] = species: Danio rerio; experiment: Toxicity against zebrafish embryo assessed as normal embryos at 10 ug/ml measured at 96 hrs post fertilization by inverted microscopic analysis; format: organism-based; details: in vivo
[25] = species: Danio rerio; experiment: Toxicity against zebrafish embryo assessed as normal embryos at 5 ug/ml measured at 96 hrs post fertilization by inverted microscopic analysis; format: organism-based; details: in vivo
[26] = species: Danio rerio; experiment: Toxicity against zebrafish embryo assessed as effect on notochord at 10 ug/ml measured at 96 hrs post fertilization by inverted microscopic analysis; format: organism-based; details: in vivo
[27] = species: Danio rerio; experiment: Toxicity against zebrafish embryo assessed as effect on notochord at 5 ug/ml measured at 96 hrs post fertilization by inverted microscopic analysis; format: organism-based; details: in vivo
[28] = species: Danio rerio; experiment: Toxicity against zebrafish embryo assessed as effect on notochord at 2.5 ug/ml measured at 96 hrs post fertilization by inverted microscopic analysis; format: organism-based; details: in vivo
[29] = species: Danio rerio; experiment: Toxicity against zebrafish embryo assessed as effect on eyes at 5 ug/ml measured at 96 hrs post fertilization by inverted microscopic analysis; format: organism-based; details: in vivo
[30] = species: Danio rerio; experiment: Toxicity against zebrafish embryo assessed as effect on eyes at 2.5 ug/ml measured at 96 hrs post fertilization by inverted microscopic analysis; format: organism-based; details: in vivo
[31] = species: Danio rerio; experiment: Toxicity against zebrafish embryo assessed as effect on otoliths at 10 ug/ml measured at 96 hrs post fertilization by inverted microscopic analysis; format: organism-based; details: in vivo
[32] = species: Danio rerio; experiment: Toxicity against zebrafish embryo assessed as effect on otoliths at 5 ug/ml measured at 96 hrs post fertilization by inverted microscopic analysis; format: organism-based; details: in vivo
[33] = system: Danio rerio; experiment: Toxicity against zebrafish embryo assessed as pericardial edema at 10 ug/ml measured at 96 hrs post fertilization by inverted microscopic analysis; format: organism-based; details: in vivo
[34] = system: Danio rerio; experiment: Toxicity against zebrafish embryo assessed as pericardial edema at 5 ug/ml measured at 96 hrs post fertilization by inverted microscopic analysis; format: organism-based; details: in vivo
[35] = system: Danio rerio; experiment: Toxicity against zebrafish embryo assessed as pericardial edema at 2.5 ug/ml measured at 96 hrs post fertilization by inverted microscopic analysis; format: organism-based; details: in vivo
[36] = system: Danio rerio; experiment: Toxicity against zebrafish embryo assessed as yolk edema at 10 ug/ml measured at 96 hrs post fertilization by inverted microscopic analysis; format: organism-based; details: in vivo
[37] = system: Danio rerio; experiment: Toxicity against zebrafish embryo assessed as yolk edema at 5 ug/ml measured at 96 hrs post fertilization by inverted microscopic analysis; format: organism-based; details: in vivo
[38] = system: Danio rerio; experiment: Toxicity against zebrafish embryo assessed as yolk edema at 2.5 ug/ml measured at 96 hrs post fertilization by inverted microscopic analysis; format: organism-based; details: in vivo
[39] = species: Danio rerio; experiment: Toxicity against zebrafish embryo assessed as effect on heart beat at 5 ug/ml measured at 96 hrs post fertilization by inverted microscopic analysis; format: organism-based; details: in vivo
[40] = species: Danio rerio; experiment: Toxicity against zebrafish embryo assessed as effect on heart beat at 2.5 ug/ml measured at 96 hrs post fertilization by inverted microscopic analysis; format: organism-based; details: in vivo
[41] = species: Danio rerio; experiment: Toxicity against zebrafish embryo assessed as effect on blood circulation at 10 ug/ml measured at 96 hrs post fertilization by inverted microscopic analysis; format: organism-based; details: in vivo
[42] = species: Danio rerio; experiment: Toxicity against zebrafish embryo assessed as effect on blood circulation at 2.5 ug/ml measured at 96 hrs post fertilization by inverted microscopic analysis; format: organism-based; details: in vivo
[43] = species: Danio rerio; experiment: Toxicity against zebrafish embryo assessed as unhatched embryos at 10 ug/ml measured at 96 hrs post fertilization by inverted microscopic analysis; format: organism-based; details: in vivo
[44] = species: Danio rerio; experiment: Toxicity against zebrafish embryo assessed as unhatched embryos at 5 ug/ml measured at 96 hrs post fertilization by inverted microscopic analysis; format: organism-based; details: in vivo
[45] = species: Danio rerio; experiment: Toxicity against zebrafish embryo assessed as head malformation at 5 ug/ml measured at 96 hrs post fertilization by inverted microscopic analysis; format: organism-based; details: in vivo
[46] = species: Danio rerio; experiment: Toxicity against zebrafish embryo assessed as skeletal deformities at 5 ug/ml measured at 96 hrs post fertilization by inverted microscopic analysis; format: organism-based; details: in vivo
[47] = species: Danio rerio; experiment: Toxicity against zebrafish embryo assessed as skeletal deformities at 2.5 ug/ml measured at 96 hrs post fertilization by inverted microscopic analysis; format: organism-based; details: in vivo

Compound `Cc1ccc(-c2ccc(/C=N/NC(=N)N)s2)cc1.Cl` has an MIC [1] of 0.5 µg/mL, an MIC [2] of 6.25 µg/mL and an MIC [3] of 1.56 µg/mL. The IC50 [4] was 2.5 µg/mL, the Activity [5] was “inactive” and the Activity [6] was 7%. The Activity [7] was “Active”, the MBEC [8] was 125 µg/mL and the MBEC [9] was 125 µg/mL. The mortality at 96 h, 50 ug/ml [10] was 100%, the mortality at 96 h, 25 ug/ml [11] was 100% and the mortality at 96 h, 5 ug/ml [12] was 20%. For the same compound, the mortality at 96 h, 2.5 ug/ml [13] was 10%, the Activity [14] was 0% and the Activity [15] was 0%. For the same compound, the Activity [16] was 80%, the Activity [17] was 6.67% and the Activity [18] was 0%. For the same compound, the Activity [19] was 0%, the Activity [20] was 0% and the LC50 at 96 h [21] was 8.2 µg/mL. It also gave an Activity [22] of 0%, an Activity [23] of 0% and an Activity [24] of 0%. For the same compound, the Activity [25] was 0%, the Activity [26] was 0% and the Activity [27] was 0%. For the same compound, the Activity [28] was 0%, the Activity [29] was 0% and the Activity [30] was 0%. For the same compound, the Activity [31] was 100%, the Activity [32] was 62.5% and the Activity [33] was 100%. It also gave an Activity [34] of 100%, an Activity [35] of 7.41% and an Activity [36] of 0%. For the same compound, the Activity [37] was 0%, the Activity [38] was 0% and the Activity [39] was 0%. It also gave an Activity [40] of 0%, an Activity [41] of 0% and an Activity [42] of 0%. The Activity [43] was 0%, the Activity [44] was 0% and the Activity [45] was 100%. It also gave an Activity [46] of 0% and an Activity [47] of 0%.
With `Cl.N=C(N)N/N=C/c1ccc(-c2ccc(Br)cc2)s1` the MIC [1] was 1.56 µg/mL, the MIC [2] was 6.25 µg/mL and the MIC [3] was 0.25 µg/mL. The IC50 [4] was 2 µg/mL, the Activity [5] was “inactive” and the Activity [6] was 7%. The Activity [7] was “Active”, the MBEC [8] was 125 µg/mL and the MBEC [9] was 125 µg/mL. It also gave a mortality at 96 h, 50 ug/ml [10] of 100%, a mortality at 96 h, 25 ug/ml [11] of 73.3% and a mortality at 96 h, 5 ug/ml [12] of 10%. For the same compound, the mortality at 96 h, 2.5 ug/ml [13] was 0%, the Activity [14] was 0% and the Activity [15] was 26.67%. It also gave an Activity [16] of 10%, an Activity [17] of 0% and an Activity [18] of 0%. For the same compound, the Activity [19] was 0%, the Activity [20] was 0% and the LC50 at 96 h [21] was 14.1 µg/mL. It also gave an Activity [22] of 0%, an Activity [23] of 0% and an Activity [24] of 46.67%. For the same compound, the Activity [25] was 80%, the Activity [26] was 0% and the Activity [27] was 0%. For the same compound, the Activity [28] was 0%, the Activity [29] was 0% and the Activity [30] was 0%. It also gave an Activity [31] of 0%, an Activity [32] of 0% and an Activity [33] of 33.33%. It also gave an Activity [34] of 11.11%, an Activity [35] of 0% and an Activity [36] of 0%. It also gave an Activity [37] of 0%, an Activity [38] of 0% and an Activity [39] of 0%. The Activity [40] was 0%, the Activity [41] was 0% and the Activity [42] was 0%. For the same compound, the Activity [43] was 0%, the Activity [44] was 0% and the Activity [45] was 0%. For the same compound, the Activity [46] was 0% and the Activity [47] was 0%.
